Measurements from US10738028B2, “Spiro three-membered ring, spiro five-membered ring peptide deformylase inhibitor and use thereof in antibacteria and anti-tumor” (priority 2016, dated 2020).

Test system: methicillin-resistant Staphylococcus aureus (MRSA)
Assay: MIC, two-fold agar dilution (CLSI), clinical isolates
Assay type: cell-based
Conditions: Table 8; strain and unit inferred, MRSA
Source text: 1. The invention adopts the two-fold agar dilution method recommended by the operating procedure of antimicrobial susceptibility testing set by American Clinical and Laboratory Standards Institute (CLSI) to determine the Minimum Inhibitory Concentration (MIC) of the test samples against the tested strains.

SMILES	Measured MIC
CCCC[C@H](CN(O)C=O)C(=O)N1CCC[C@H]1C(=O)Nc1ccc(F)c[n+]1[O-] [A, reference compound]	0.5 µg/mL
CCCC[C@H](CN(O)C=O)C(=O)N1CC=C[C@H]1C(=O)Nc1ccc(F)c[n+]1[O-] [B, reference compound]	1 µg/mL
C=C1C[C@@H](C(=O)Nc2ccc(F)c[n+]2[O-])N(C(=O)[C@H](CCCC)CN(O)C=O)C1 [C, reference compound]	0.5 µg/mL
CCCC[C@H](CN(O)C=O)C(=O)N1CC2(CC2)C[C@H]1C(=O)Nc1ccc(F)c[n+]1[O-] [D]	0.125 µg/mL
